Results from patent publication US20150174202A1, “Methods and Compositions for Modulating Beta Cell Proliferation” (The Board of Trustees of the Leland Stanford Junior …, priority 2011, published 2015).
Entries after “also recorded” stand apart in the source; their conditions may differ.

Experiments:
Type in all cases: cell-based
PDGFRA [1] = assay: PDGFRA expression in mouse islets exposed to 5-aza-C
Excerpt: (§1) The CpG tool of the UCSC genome browser (v257) identifies two CpG islands upstream of the translational start site of the mouse Pdgfra gene, spanning the regions −9040/−9610 and −5662/−5054 (FIG. 20). The more 3′ promoter-proximal CpG island at −5662/−5054 aligns well with regions associated with histone H3K4me1 and H3K4me3, marks of enhancers or cis-regulatory elements, with lesser overlap in the more 5′ CpG island at −9040/−9610. There are also two CpG islands within the −3,600 to +118 region of the human PDGFRA promoter-proximal region, and evidence exists that DNA methylation within the most 3′ CpG island regulates PDGFRA expression (Toepoel et al 2008). […] These findings indicate that DNA methylation and associated chromatin remodeling regulates expression of islet β-cell PDGFRA.

PDGFRA [2] = assay: PDGFRA expression in human islets exposed to 5-aza-C
Excerpt: as §1

EZH2 [3] = assay: EZH2/EZH1 mRNA in cultured human islets (real-time RT-PCR); settings: juvenile human islets, PDGF-AA 50 ng/ml with Sunitinib 2 μM or U0126 10 μM, 2 days
Method: Total RNA from freshly isolated or cultured islets after indicated treatments were purified using the Absolutely RNA miniprep purification kit (Stratagene) according to the manufacturer's instructions. RNA concentration was measured with a RiboGreen RNA quantification assay (Invitrogen). One-step quantitative RT-PCR was performed and analysed using an ABI Prism 7300 detection system (Applied Biosystems) with TaqMan one-step RTPCR Master Mix Reagents and appropriate amounts (10-100 ng) of islet total RNA as the template. We calculated the ratio of mRNA for the gene of interest to the amount of internal control mRNA of peptidylprolyl isomerase A (cyclophilin A, PPIA), and then normalized the ratio for each gene to its median. For islet studies, human islets were isolated either at Pittsburgh University Medical Center or the University of Alabama, Birmingham. Eight independent human islet preparations from juvenile donors at the age of 8 months, 1.0, 1.5, 2, 3, 4, 5 and 6 years, and three adult islet preparations from donors at the age of 39, 48 and 56 years were used in this study. After isolation, fresh islets were hand-picked and transferred to RPMI-1640 medium supplemented with 0.5% FBS, 0.2% BSA and 2% penicillin/streptomycin for an overnight recovery before experiments. […] To detect in vitro human islet β-cell proliferation stimulated by PDGF-AA, human islets were exposed to 50 μM BrdU for 24 h. Afterwards, human islets were processed in a similar way as in mouse islet studies for immunostaining of insulin, glucagon, PDX1 and BrdU. β-Cell proliferation rate was determined by quantifying percentage of insulin+ cells with BrdU+. More than 50 islets per group were counted for determining cultured human islet β-cell proliferation rate.

Ezh2 [4] = assay: Ezh2/Ezh1 expression in cultured mouse islets (real-time RT-PCR, western blot); settings: 2 days; for effect of inhibitor on PDGF-AA-induced Ezh2 expression: 3 week-old mouse islets, PDGF-AA plus inhibitor; for Ezh2 mRNA levels after mitogen exposure: juvenile mouse islets exposed to insulin or prolactin
Method: Mouse pancreatic islets were purified as described in Chen et al. (2009) Genes Dev. 23, 975-985 and used immediately for assays described in the text. To study Ezh2 induction in cultured islets exposed to mitogens, freshly isolated islets from 2-3-week old, and 7-12-month old C57BL/6 mice were recovered and equilibrated overnight at 37° C., 5% CO2 in RPMI-1640 medium supplemented with 0.5% fetal bovine serum (FBS), 0.2% bovine albumin (BSA) and 2% penicillin/streptomycin. Afterwards, islets were distributed into microplates or dishes, and treated with recombinant human PDGF-AA, prolactin or insulin (Sigma), with or without addition of pharmacological inhibitors, including Sunitinib (Selleck), […]0126 (Sigma), LY294002 (Sigma) or U-73122 (Sigma) at the indicated concentrations. Two days later, islets were harvested for RNA or protein extraction for real-time RTPCR or western blot analyses. To detect phosphorylation of Pdgfr-α by western blot, islets were exposed to PDGF-AA (with or without indicated pharmacological inhibitors) for 90 min before islet harvesting and protein extraction. To detect in vitro islet β-cell proliferation stimulated by PDGF-AA, a final concentration of 50 μM BrdU was introduced into each culture dish 24 h before harvest, followed by standard histological processing. Immunostaining of BrdU and insulin was performed on processed islets, and β-cell proliferation rate was determined by quantifying percentage of insulin+ cells with BrdU+. Culture experiments of human islets were performed using a similar procedure described later. Total RNA from freshly isolated or cultured islets after indicated treatments were purified using the Absolutely RNA miniprep purification kit (Stratagene) according to the manufacturer's instructions. RNA concentration was measured with a RiboGreen RNA quantification assay (Invitrogen). One-step quantitative RT-PCR was performed and analysed using an ABI Prism 7300 detection system (Applied Biosystems) with TaqMan one-step RTPCR Master Mix Reagents and appropriate amounts (10-100 ng) of islet total RNA as the template. We calculated the ratio of mRNA for the gene of interest to the amount of internal control mRNA of peptidylprolyl isomerase A (cyclophilin A, PPIA), and then normalized the ratio for each gene to its median. For western blots, total islet protein was prepared from freshly isolated or cultured islets after indicated treatments as described in Chen et al. (2009) Genes Dev. 23, 975-985. Equal amounts of protein were resolved on SDS-PAGE and transferred to polyvinylidine fluoride membranes (Amersham Pharmacia) for immunoblotting with specific antibodies, including rabbit polyclonal anti-human Ezh2 (1:1,000, Millipore), rabbit polyclonal anti-phospho-PDGFR-α ([…]) (1:1,000, Santa Cruz Biotechnologies), rabbit monoclonal anti-PDGFR-α (1:1,000, Cell Signaling), mouse monoclonal anti-β-actin (1:4,000, Sigma), rabbit monoclonal anti-Akt (1:1,500, Cell Signaling), rabbit monoclonal anti-phospho-Ark ([…]) (1:1,000, Cell Signaling), rabbit monoclonal anti-p44/42 MAPK (Erk1/2) (1:1,500, Cell Signaling), rabbit monoclonal anti-phospho-p44/42 MAPK (Erk1/2) […]) (1:1,000, Cell Signaling), rabbit monoclonal anti-PLCγ1 (1:1,000, Cell Signaling) and rabbit monoclonal anti-phospho-PLCγ1 ([…]) (1:1,000, Cell Signaling). Signal was visualized using ECL detection (Amersham Pharmacia) on Kodak film after further incubation with HRP-conjugated secondary antibodies. For phospho-PDGFR-α ([…]) and PDGFR-α detection, signal was amplified by incubating the membrane with biotinylated anti-rabbit-IgG (1:2,000), followed with an incubation with HRP-avidin (1:2,000, Vector Laboratories) and then ECL visualization.

human islet β-cells = assay: In vitro human islet β-cell proliferation (BrdU incorporation); settings: juvenile human islets, PDGF-AA 50 ng/ml with Sunitinib 2 μM or U0126 10 μM
Excerpt: For islet studies, human islets were isolated either at Pittsburgh University Medical Center or the University of Alabama, Birmingham. Eight independent human islet preparations from juvenile donors at the age of 8 months, 1.0, 1.5, 2, 3, 4, 5 and 6 years, and three adult islet preparations from donors at the age of 39, 48 and 56 years were used in this study. After isolation, fresh islets were hand-picked and transferred to RPMI-1640 medium supplemented with 0.5% FBS, 0.2% BSA and 2% penicillin/streptomycin for an overnight recovery before experiments. […] To detect in vitro human islet β-cell proliferation stimulated by PDGF-AA, human islets were exposed to 50 μM BrdU for 24 h. Afterwards, human islets were processed in a similar way as in mouse islet studies for immunostaining of insulin, glucagon, PDX1 and BrdU. β-Cell proliferation rate was determined by quantifying percentage of insulin+ cells with BrdU+. More than 50 islets per group were counted for determining cultured human islet β-cell proliferation rate.

mouse islet β-cells = assay: In vitro mouse islet β-cell proliferation (BrdU incorporation); settings: 3 week-old mouse islets, PDGF-AA 50 ng/ml plus inhibitor (Sunitinib 2 μM, Vargatef 5 μM), 2 days
Method: Mouse pancreatic islets were purified as described in Chen et al. (2009) Genes Dev. 23, 975-985 and used immediately for assays described in the text. To study Ezh2 induction in cultured islets exposed to mitogens, freshly isolated islets from 2-3-week old, and 7-12-month old C57BL/6 mice were recovered and equilibrated overnight at 37° C., 5% CO2 in RPMI-1640 medium supplemented with 0.5% fetal bovine serum (FBS), 0.2% bovine albumin (BSA) and 2% penicillin/streptomycin. Afterwards, islets were distributed into microplates or dishes, and treated with recombinant human PDGF-AA, prolactin or insulin (Sigma), with or without addition of pharmacological inhibitors, including Sunitinib (Selleck), […]0126 (Sigma), LY294002 (Sigma) or U-73122 (Sigma) at the indicated concentrations. Two days later, islets were harvested for RNA or protein extraction for real-time RTPCR or western blot analyses. To detect phosphorylation of Pdgfr-α by western blot, islets were exposed to PDGF-AA (with or without indicated pharmacological inhibitors) for 90 min before islet harvesting and protein extraction. To detect in vitro islet β-cell proliferation stimulated by PDGF-AA, a final concentration of 50 μM BrdU was introduced into each culture dish 24 h before harvest, followed by standard histological processing. Immunostaining of BrdU and insulin was performed on processed islets, and β-cell proliferation rate was determined by quantifying percentage of insulin+ cells with BrdU+. […] For measuring pancreatic β-cell mass or BrdU by morphometry, three to six mice for each group were analysed. At least five sections separated by more than 300 μm (pancreases) or 50 μm (cultured islets) were immunostained and assessed for each sample. Images were analysed with an ImagePro program by observers blinded to genotype, and pancreatic β-cell mass and percentage of BrdU+β-cells were calculated as described in Chen et al. Polycomb protein Ezh2 regulates pancreatic 6-cell Ink4a/Arf expression and regeneration in diabetes mellitus. […]

## Nc1ncn([C@@H]2O[C@H](CO)[C@@H](O)[C@H]2O)c(=O)n1 [5-aza-C, 5-aza-cytidine]
PDGFRA [1]
  derepression of PDGFRA: dosage-dependent derepression; also recorded: dosage-dependent de-repression
PDGFRA [2]
  derepression of PDGFRA: dosage-dependent derepression; also recorded: dosage-dependent de-repression

## N#CC(=C(/N)Sc1ccccc1N)/C(C#N)=C(\N)Sc1ccccc1N [U0126, reference compound]
EZH2 [3]
  effect of inhibitor on PDGF-AA-increased EZH2 mRNA: blocked
Ezh2 [4]
  effect of inhibitor on PDGF-AA-induced Ezh2 expression: blocked; also recorded: attenuates
Human islet β-cells
  effect of inhibitor on PDGF-AA-increased β-cell BrdU incorporation: eliminated
Mouse islet β-cells
  effect of inhibitor on PDGF-AA-increased β-cell BrdU incorporation: blocked; also recorded: attenuates

## COC(=O)c1ccc2c(c1)NC(=O)/C2=C(\Nc1ccc(N(C)C(=O)CN2CCN(C)CC2)cc1)c1ccccc1 [Vargatef, reference compound]
Ezh2 [4]
  effect of inhibitor on PDGF-AA-induced Ezh2 expression: eliminated
Mouse islet β-cells
  effect of inhibitor on PDGF-AA-increased β-cell BrdU incorporation: eliminated

## insulin
Ezh2 [4]
  Ezh2 mRNA levels after mitogen exposure: did not detectably alter
Ezh2 [4]; listed as Insulin
  Ezh2 mRNA levels after mitogen exposure: did not induce
